# Counter-ions that a name gives are not always drawn. Like-named read-outs stand apart in the source and are kept apart here.
# Legend:
# SH-SY5Y cells = experiment: cells
# Procedure: (see below). […] PI is excluded by living cells, but diffuses into dead cells where it binds nucleic acid and emits fluorescence. FDA/PI differential staining thus provides a quantitative assessment of cellular viability. The blue curves in Fig. 4a,b depict the cellular viability after treatment with 0–0.8 µM of p-tau.
# P-tau (without pre-aggregation) and compounds were added together to cells. Cell viability was quantified by FDA and PI differential staining 24 h later. […] Cellular viability was characterized as above and plotted against the compound concentration. Trend lines in panels (a)–(c) were obtained with the dose response curve fitting function of the software Origin (Origin Pro 8, OriginLab Corporation, Northampton, MA, USA). (d) Representative images of apoptotic cells after treatment of p-tau. SH-SY5Y cells were treated with 0.6 µM of p-tau for 12 h before harvesting for annexin V and PI staining. […] The percentage of apoptotic SH-SY5Y cells was quantified by annexin V and PI double staining of cells receiving 12 h of the indicated treatment under each column in the graph. Error bars are standard deviations; n = 3.
# SH-SY5Y cells were treated with 0–0.6 µM of p-tau in conjunction with varying doses of nitrazepam, prazepam or devazepide. […] The red dotted lines indicate 50% viability. Curve fitting was done with the dose–response fitting function of the software Origin (version 8, OriginLab Inc.). The number in parentheses represents the concentration (in µM) of the indicated compound.
# Cell viability assays were tested according to reference[60] with modifications. PTAIs were typically added to cells along with (Fig. 4) or after p-tau was added to cells (Fig. 5). For PTAEs, 10 × concentration of p-tau and the test compounds were assembled for pre-aggregation (without heparin or ThS) for 48 h before adding 10 µl to 100 µl of cells in 96-well plates. Twenty-four or 48 h after the addition of protein/compound, cells were trypsinized and transferred to microcentrifuge tubes, and pelleted at 1000 × g for 5 min at room temperature for FDA, PI, annexin V, and ThS staining. For PI/ThS double staining, cell pellets were resuspended in 20 mM Tris, pH7.4 buffer and incubated with 100 µM ThS for 5 min at room temperature. 5-µg/ml propidium iodide was then added to cell suspension for observation under a microscope.
# Supplemental Figure 2. […] SH-SY5Y cells were treated with the indicated concentrations p-tau and compounds (in µM) for 20 hours before FDA/PI differential staining and microscopic quantification. […] 0.2 or 0.4 µM of p-tau and 30 µM of each compound were pre-incubated in aggregation reactions for 24 hours before the 20-hr cell treatment and cytotoxicity quantification. FDA and PI dual staining was performed to measure cellular viability. SH-SY5Y cells Compounds in panel (a) were added to cells along with p-tau without pre-incubation.
# 1N4R p-tau = test system: T1, 1N4R p-tau; experiment: p-tau aggregation modulator screen of 1280-compound library (ThS fluorescence net change over 16 h); assay type: biochemical; set-up: key to PTAI>3SD: *: PTAI>3SD; conditions: for PTAI>3SD: flag: p-tau aggregation inhibitor, ThS net change more than 3 SD from mean; for ThS net change: library screen, ThS fluorescence net change over 16 h with p-tau
# T1 construct: made in house; host or cells: E. coli (PIMAX system)
# p-tau = biological target: T2, p-tau (Homo sapiens, UniProt P10636); experiment: p-tau aggregation assay, dose response (ThS fluorescence, inducer-free); assay type: biochemical; conditions: for EC50 / effect on p-tau aggregation (16-h net change of ThS fluorescence): 6 µM p-tau; for EC50: ThS fluorescence; for effect on p-tau aggregation (16-h net change of ThS fluorescence): 6.25-150 µM benzodiazepine
# T2 construct: made in house; host or cells: E. coli (PIMAX system)
# Procedure: Aggregation of 6-µM p-tau under the influence of 30 µM of each of the library compounds or a DMSO vehicle control was monitored in 384-well plates every 10 min for ThS fluorescence changes over 16 h. To assess the quality of the high-throughput p-tau aggregation reactions, we used the T0 and T16hr ThS fluorescence units of no-compound control reactions to calculate the Z′-factor and coefficient of variation (CV), two commonly used criteria for robustness of high-throughput screens (HTS)[62]. A Z′-factor greater than 0.5 and CV smaller than 10% indicate robustness. […] To identify compounds with significant p-tau aggregation modulation, the net change of ThS fluorescence was calculated from all reactions (see Supplemental Table 1 for complete listing).
# Aggregation of 6 µM of p-tau was done in the presence of the indicated concentrations of either compound. […] P-tau aggregation reactions with the C291S C322S (C/S) mutant p-tau were done in the presence of the indicated amounts of either compound. Shown are net changes of ThS over 16 h.
# Given the tremendous socioeconomical burdens of AD, measures that prevent or delay the onset of the devastating neurodegeneration of AD will be highly impactful. If hyperphosphorylated tau-inflicted neuronal damages are an underpinning for AD and other tauopathies, enhancers of p-tau aggregation (PTAEs) may be risk factors for neurodegeneration. […] Prednicarbate is a synthetic corticosteroid for dermatological use, and carmofur (1-hexylcarbamoyl-5-fluorouracil) is an anti-neoplastic pyrimidine analogue. […] BZDs are among the most widely prescribed medication, in particular to the elderly, for depression and insomnia[70],[71]. We hypothesized that certain BZDs acted as a PTAE to potentiate p-tau aggregation and cytotoxicity. […] We therefore randomly picked nine prescription BZDs for p-tau aggregation assessment (Fig. 6; see Supplemental Fig. 5 for chemical structures). To 6-µM p-tau aggregation reactions, increasing doses of each of these BZDs were added.
# Prednicarbate, a synthetic steroid, served as a PTAE control (yellow bars).
# The aggregation assays over the course of this project have been done with multi-plate readers from different sources.
# A common mix of 6 µM p-tau, 20 mM Tris pH 7.4, 1 mM DTT, and 20 µM ThS was assembled and dispensed to 384-well low-volume plates (10 µl per well) using BioTek EL406 Washer, followed by the addition of 150 nl of the Prestwick Library compounds (final concentration of 30 µM per well) or DMSO in a Beckman Coulter Biomek FX^P workstation. Each plate was covered with an Optical Adhesive Film and incubated at 37 °C for about 10 min. ThS fluorescence was measured every 10 min at 440/490 nm for 16 h by Biotek Synergy Neo Plate Reader. […] The real-time kinetics of ThS signals were collected using Gen5 software.
# [1] = set-up: method as in PMID 29401722; conditions: cited from earlier work
# women = conditions: cited from earlier work
# [2] = test system: C291S C322S (C/S) and C291A C322A (C/A) mutant p-tau; experiment: aggregation of C/S or C/A mutant p-tau (ThS net change); assay type: biochemical; conditions: increasing doses of compound
# Procedure: Figure 3 R-(−)-apomorphine and raloxifene are p-tau aggregation inhibitors (PTAIs) that act independently of the redox state of p-tau. (a) and (b) P-tau aggregation inhibition dose response curves of R-(−)-apomorphine and raloxifene. Aggregation of 6 µM of p-tau was done in the presence of the indicated concentrations of either compound. (c) Both R-(−)-apomorphine and raloxifene act independently of the two cysteine residues of p-tau. P-tau aggregation reactions with the C291S C322S (C/S) mutant p-tau were done in the presence of the indicated amounts of either compound. Shown are net changes of ThS over 16 h.
# Many “hits” from prior tau-based HTS were non-selective redox modulators, due most likely to the susceptibility of unmodified tau fibrils to the oxidation of two cysteine residues of tau, C291 and C322. Because p-tau aggregation was not affected by changing the two cysteine residues to alanine or serine, we suspected that R-(−)-apomorphine and raloxifene would act independently of these two cysteine. […] By itself, the C/S p-tau gained 130 units of ThS fluorescence over the course of the aggregation reaction (blue column). With increasing doses of either compound, the net gain of ThS fluorescence decreased progressively. […]
# K18 P301L = test system: K18 P301L; set-up: method as in earlier work; conditions: 15 µM K18 P301L, 40 µM heparin; ref Probe Report ML103, National Center for Biotechnology Information, 2010; read-out: AC50 for tau aggregation inhibition; cited from earlier work
# [3] = 50 or 200 µM compound, heparin-free
# [4] = SH-SY5Y, p-tau pre-incubated with compound
# T2 sequence (P10636 1-412 isoform P10636-7): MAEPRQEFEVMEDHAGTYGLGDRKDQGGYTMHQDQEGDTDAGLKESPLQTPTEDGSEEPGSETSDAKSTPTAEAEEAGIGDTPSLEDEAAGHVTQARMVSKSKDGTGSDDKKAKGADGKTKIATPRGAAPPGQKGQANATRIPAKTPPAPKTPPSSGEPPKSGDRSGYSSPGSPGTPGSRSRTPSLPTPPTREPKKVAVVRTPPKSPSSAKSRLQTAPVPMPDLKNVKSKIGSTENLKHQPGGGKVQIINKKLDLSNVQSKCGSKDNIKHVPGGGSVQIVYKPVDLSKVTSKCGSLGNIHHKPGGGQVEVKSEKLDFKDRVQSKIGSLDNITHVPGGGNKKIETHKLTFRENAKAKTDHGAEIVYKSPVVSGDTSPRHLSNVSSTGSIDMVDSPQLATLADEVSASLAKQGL
smiles,measurement,setting,value
"CC(C)/N=c1\cc2n(-c3ccc(Cl)cc3)c3ccccc3nc-2cc1Nc1ccc(Cl)cc1 [Clofazimine, clofazimine, reference compound]",p-tau cytotox,SH-SY5Y cells,No change
same,PTAI>3SD,1N4R p-tau,*
same,ThS net change,1N4R p-tau,-196
same,EC50,p-tau,68 µM
"NNc1nncc2ccccc12 [Hydralazine, hydralazine hydrochloride]",p-tau cytotox,SH-SY5Y cells,No change
same,EC50,p-tau,21.8 µM
"COC1=C(OC)C(=O)C(CCCCCCCCCCO)=C(C)C1=O [Idebenone, idebenone]",bioavailability,[1],very low bioavailability
same,PTAI>3SD,1N4R p-tau,*
same,ThS net change,1N4R p-tau,-1
same,EC50,p-tau,10.5 µM
"CCC(C)n1ncn(-c2ccc(N3CCN(c4ccc(OCC5COC(Cn6cncn6)(c6ccc(Cl)cc6Cl)O5)cc4)CC3)cc2)c1=O (centres unmarked) [Itraconazole, itraconazole, reference compound]",p-tau cytotox,SH-SY5Y cells,No change
same,PTAI>3SD,1N4R p-tau,*
same,ThS net change,1N4R p-tau,-31
same,EC50,p-tau,10.6 µM
"COC(=O)C1=C(C)NC(C)=C(C(=O)OCC(C)C)C1c1ccccc1[N+](=O)[O-] (centres unmarked) [Nisoldipine, nisoldipine, reference compound]",p-tau cytotox,SH-SY5Y cells,No change
same,PTAI>3SD,1N4R p-tau,*
same,ThS net change,1N4R p-tau,-29
"O=C(c1ccc(OCCN2CCCCC2)cc1)c1c(-c2ccc(O)cc2)sc2cc(O)ccc12 [Raloxifene, raloxifene hydrochloride]",EC50,"SH-SY5Y cells; Homo sapiens, SH-SY5Y, read-out: EC50, concentration of compound to reduce p-tau cytotoxicity by 50%, SH-SY5Y, 0.8 µM p-tau",4.8 µM
same,risk of mild cognitive impairment (MCI),"women; 3-year trial, 5386 participants, 120 mg daily",reduced risks of mild cognitive impairment (MCI)
same,benefit for AD treatment,"women; 12-month trial, 42 women with late-onset AD of mild to moderate severity",no significant benefits
same,EC50,p-tau,31.2 µM
same,effect on p-tau aggregation,p-tau; 50 µM compound,completely blocked p-tau aggregation
same,aggregation of C/A or C/S mutant p-tau,[2],effectively inhibited
CCOC(=O)c1nn(-c2ccccc2)c(=O)c2c(N)scc12 [compound 1],AC50,K18 P301L,3.3 ± 0.2 µM
same,effect on p-tau aggregation,p-tau; [3],no effect on p-tau aggregation
Nc1scc2c(C(=O)O)nn(-c3ccccc3)c(=O)c12 [compound 2],AC50,K18 P301L,6.8 ± 0.4 µM
same,p-tau aggregation reduced to,p-tau; 400 µM compound,57%
same,p-tau aggregation reduced to,p-tau; 1 mM compound,46%
same,effect on p-tau aggregation,p-tau; [3],moderate inhibition
CN1C(=O)[C@@H](NC(=O)c2cc3ccccc3[nH]2)N=C(c2ccccc2)c2ccccc21 [devazepide],"effect on p-tau cytotoxicity (cell death curve, LD50)",SH-SY5Y cells,decreasing LD50
same,effect on p-tau aggregation (16-h net change of ThS fluorescence),p-tau,enhanced p-tau aggregation in a dose-dependent manner
O=C1CN=C(c2ccccc2)c2cc([N+](=O)[O-])ccc2N1 [nitrazepam],"effect on p-tau cytotoxicity (cell death curve, LD50)",SH-SY5Y cells; [4],did not alter the cytotoxicity of p-tau at all
same,effect on p-tau aggregation (16-h net change of ThS fluorescence),p-tau,did not
O=C1CN=C(c2ccccc2)c2cc(Cl)ccc2N1CC1CC1 [prazepam],"effect on p-tau cytotoxicity (cell death curve, LD50)",SH-SY5Y cells; [4],decreasing LD50
same,effect on p-tau aggregation (16-h net change of ThS fluorescence),p-tau,enhanced p-tau aggregation in a dose-dependent manner

# From paper PMC7539012, “Hyperphosphorylated tau aggregation and cytotoxicity modulators screen identified prescription drugs linked to Alzheimer's disease and cognitive functions” (Scientific Reports, 2020)
